According to ChEMBL document CHEMBL5465560, “Selectivity Literature for EUbOPEN Chemogenomic Library” (2024):

What was measured:
[1] = target: Serine/threonine-protein kinase MRCK beta (Homo sapiens) (UniProt Q9Y5S2); settings: at 10 µM
[2] = target: Protein kinase C eta type (Homo sapiens) (UniProt P24723); settings: at 10 µM
[3] = target: Histone-lysine N-methyltransferase 2A (Homo sapiens) (UniProt Q03164); test: Selectivity interaction (Methyltransferase screen (Scintillation proximity assays)) EUB0000255b MLL
[4] = target: T1, Histone-lysine N-methyltransferase SMYD3 (Homo sapiens) (UniProt Q9H7B4); test: Selectivity interaction (Methyltransferase screen (Scintillation proximity assays)) EUB0000255b SMYD3
T1 sequence (whole entry): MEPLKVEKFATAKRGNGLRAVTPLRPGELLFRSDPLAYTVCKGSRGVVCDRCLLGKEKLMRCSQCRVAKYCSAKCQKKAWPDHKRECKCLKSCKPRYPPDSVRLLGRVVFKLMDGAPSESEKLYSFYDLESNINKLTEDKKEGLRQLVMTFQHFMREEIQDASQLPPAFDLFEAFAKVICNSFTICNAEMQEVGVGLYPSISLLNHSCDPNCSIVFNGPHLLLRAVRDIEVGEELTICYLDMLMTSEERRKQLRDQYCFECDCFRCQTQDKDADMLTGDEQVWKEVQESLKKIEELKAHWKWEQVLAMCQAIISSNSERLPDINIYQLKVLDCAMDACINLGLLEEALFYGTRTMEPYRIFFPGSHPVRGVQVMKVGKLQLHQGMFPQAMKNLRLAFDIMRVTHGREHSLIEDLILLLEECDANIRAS

[5] = target: Tyrosine-protein kinase receptor UFO (Homo sapiens) (UniProt P30530); test: Selectivity interaction (KinomeScan (DiscoverX)) EUB0000092b AXL; settings: at 10 µM
[6] = target: Serine/threonine-protein kinase PRP4 homolog (Homo sapiens) (UniProt Q13523); test: Selectivity interaction (KinomeScan (DiscoverX)) EUB0000655a PRPF4; settings: at 10 µM
[7] = target: Tyrosine-protein kinase JAK1 (Homo sapiens, UniProt P23458); test: Selectivity interaction (KinomeScan (DiscoverX)) EUB0001079a JAK1; settings: at 1 µM
[8] = target: T2, Hormonally up-regulated neu tumor-associated kinase (Homo sapiens) (UniProt P57058); test: Selectivity interaction (KinomeScan (DiscoverX)) EUB0000666a HUNK; settings: at 10 µM
T2 sequence (whole entry): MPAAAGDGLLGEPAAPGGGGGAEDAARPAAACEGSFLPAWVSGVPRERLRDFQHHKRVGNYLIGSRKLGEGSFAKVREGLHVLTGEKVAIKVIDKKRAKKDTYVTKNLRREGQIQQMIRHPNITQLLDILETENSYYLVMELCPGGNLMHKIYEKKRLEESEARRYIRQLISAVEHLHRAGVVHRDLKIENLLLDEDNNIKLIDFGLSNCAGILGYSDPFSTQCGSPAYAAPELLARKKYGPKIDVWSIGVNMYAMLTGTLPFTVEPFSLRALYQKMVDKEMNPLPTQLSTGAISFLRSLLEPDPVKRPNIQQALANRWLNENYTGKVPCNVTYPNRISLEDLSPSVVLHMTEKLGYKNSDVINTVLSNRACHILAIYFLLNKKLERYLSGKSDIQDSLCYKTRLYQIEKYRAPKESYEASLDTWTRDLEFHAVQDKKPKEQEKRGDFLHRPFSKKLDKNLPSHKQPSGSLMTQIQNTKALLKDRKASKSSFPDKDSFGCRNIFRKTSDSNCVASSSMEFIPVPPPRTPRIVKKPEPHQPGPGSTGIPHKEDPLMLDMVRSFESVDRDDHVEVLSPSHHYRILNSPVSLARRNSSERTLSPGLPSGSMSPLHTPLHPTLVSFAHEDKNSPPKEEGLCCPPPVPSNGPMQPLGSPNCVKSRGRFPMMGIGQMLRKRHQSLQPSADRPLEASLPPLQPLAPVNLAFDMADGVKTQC

Ephrin type-A receptor 4 = Ephrin type-A receptor 4 (Homo sapiens, UniProt P54764); settings: at 10 µM
[9] = target: Activin receptor type-2B (Homo sapiens) (UniProt Q13705); test: Selectivity interaction (LanthaScreen Eu Kinase Binding Assay) EUB0001632a ACVR2B; settings: at 10 µM
[10] = target: Ribosomal protein S6 kinase beta-1 (Homo sapiens, UniProt P23443); test: Selectivity interaction (ActivX KiNativ screen (kinase selectivity in THP-1 cell lysates)) EUB0000639a RPS6KB1; type: subcellular; settings: lysate, at 1 µM
[11] = target: Phosphatidylinositol 3-kinase catalytic subunit type 3 (Homo sapiens, UniProt Q8NEB9); test: Selectivity interaction (ActivX KiNativ screen (kinase selectivity in THP-1 cell lysates)) EUB0000639a PIK3C3; type: subcellular; settings: lysate, at 0.01 µM
[12] = target: Casein kinase I isoform epsilon (Homo sapiens, UniProt P49674); test: Selectivity interaction (ActivX KiNativ screen (kinase selectivity in THP-1 cell lysates)) EUB0000639a CSNK1E; type: subcellular; settings: lysate
[13] = target: Citron Rho-interacting kinase (Homo sapiens) (UniProt O14578); test: Selectivity interaction (KinomeScan (DiscoverX)) EUB0001049a CIT; settings: at 1 µM
[14] = target: Small conductance calcium-activated potassium channel protein 1 (Homo sapiens) (UniProt Q92952); test: Selectivity interaction (Eurofins CEREP Diversity Profile (receptors and ion channels)) EUB0000279b KCNN1; settings: at 10 µM
[15] = target: T3, Serine/threonine-protein kinase ICK (Homo sapiens) (UniProt Q9UPZ9); test: Selectivity interaction (KinomeScan (DiscoverX)) EUB0001619a ICK; settings: at 1 µM
T3 sequence (whole entry): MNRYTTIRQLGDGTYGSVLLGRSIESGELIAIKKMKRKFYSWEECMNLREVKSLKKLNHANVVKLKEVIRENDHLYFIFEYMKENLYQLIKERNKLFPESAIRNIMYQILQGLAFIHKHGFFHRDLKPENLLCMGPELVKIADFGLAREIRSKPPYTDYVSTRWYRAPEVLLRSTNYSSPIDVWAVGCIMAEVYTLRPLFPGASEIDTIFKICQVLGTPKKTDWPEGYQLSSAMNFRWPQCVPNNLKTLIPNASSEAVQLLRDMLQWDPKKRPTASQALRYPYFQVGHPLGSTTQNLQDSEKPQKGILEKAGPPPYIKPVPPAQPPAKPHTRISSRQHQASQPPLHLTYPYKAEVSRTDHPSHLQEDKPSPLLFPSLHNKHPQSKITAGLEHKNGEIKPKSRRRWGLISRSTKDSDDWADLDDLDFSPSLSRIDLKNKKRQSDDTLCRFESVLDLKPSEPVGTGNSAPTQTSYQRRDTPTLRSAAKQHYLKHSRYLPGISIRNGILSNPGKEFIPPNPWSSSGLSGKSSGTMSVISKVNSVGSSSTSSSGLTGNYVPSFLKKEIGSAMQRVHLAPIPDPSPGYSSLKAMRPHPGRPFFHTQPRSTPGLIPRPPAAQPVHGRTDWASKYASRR

Sequence of Casein kinase I isoform epsilon (P49674 whole entry, looked up, canonical isoform): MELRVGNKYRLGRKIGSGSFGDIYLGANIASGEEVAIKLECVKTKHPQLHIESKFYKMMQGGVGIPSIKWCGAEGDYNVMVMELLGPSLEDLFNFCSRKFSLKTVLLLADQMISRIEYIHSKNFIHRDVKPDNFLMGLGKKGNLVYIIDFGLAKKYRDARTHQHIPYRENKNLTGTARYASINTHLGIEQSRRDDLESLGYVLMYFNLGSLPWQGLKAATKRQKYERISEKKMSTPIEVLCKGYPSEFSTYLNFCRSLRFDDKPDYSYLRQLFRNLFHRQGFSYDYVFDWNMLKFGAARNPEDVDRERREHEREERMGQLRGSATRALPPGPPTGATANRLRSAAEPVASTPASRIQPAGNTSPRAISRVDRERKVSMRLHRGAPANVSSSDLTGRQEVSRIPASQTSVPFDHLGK
Sequence of Histone-lysine N-methyltransferase 2A (Homo sapiens) (Q03164 1-2718 limits assumed): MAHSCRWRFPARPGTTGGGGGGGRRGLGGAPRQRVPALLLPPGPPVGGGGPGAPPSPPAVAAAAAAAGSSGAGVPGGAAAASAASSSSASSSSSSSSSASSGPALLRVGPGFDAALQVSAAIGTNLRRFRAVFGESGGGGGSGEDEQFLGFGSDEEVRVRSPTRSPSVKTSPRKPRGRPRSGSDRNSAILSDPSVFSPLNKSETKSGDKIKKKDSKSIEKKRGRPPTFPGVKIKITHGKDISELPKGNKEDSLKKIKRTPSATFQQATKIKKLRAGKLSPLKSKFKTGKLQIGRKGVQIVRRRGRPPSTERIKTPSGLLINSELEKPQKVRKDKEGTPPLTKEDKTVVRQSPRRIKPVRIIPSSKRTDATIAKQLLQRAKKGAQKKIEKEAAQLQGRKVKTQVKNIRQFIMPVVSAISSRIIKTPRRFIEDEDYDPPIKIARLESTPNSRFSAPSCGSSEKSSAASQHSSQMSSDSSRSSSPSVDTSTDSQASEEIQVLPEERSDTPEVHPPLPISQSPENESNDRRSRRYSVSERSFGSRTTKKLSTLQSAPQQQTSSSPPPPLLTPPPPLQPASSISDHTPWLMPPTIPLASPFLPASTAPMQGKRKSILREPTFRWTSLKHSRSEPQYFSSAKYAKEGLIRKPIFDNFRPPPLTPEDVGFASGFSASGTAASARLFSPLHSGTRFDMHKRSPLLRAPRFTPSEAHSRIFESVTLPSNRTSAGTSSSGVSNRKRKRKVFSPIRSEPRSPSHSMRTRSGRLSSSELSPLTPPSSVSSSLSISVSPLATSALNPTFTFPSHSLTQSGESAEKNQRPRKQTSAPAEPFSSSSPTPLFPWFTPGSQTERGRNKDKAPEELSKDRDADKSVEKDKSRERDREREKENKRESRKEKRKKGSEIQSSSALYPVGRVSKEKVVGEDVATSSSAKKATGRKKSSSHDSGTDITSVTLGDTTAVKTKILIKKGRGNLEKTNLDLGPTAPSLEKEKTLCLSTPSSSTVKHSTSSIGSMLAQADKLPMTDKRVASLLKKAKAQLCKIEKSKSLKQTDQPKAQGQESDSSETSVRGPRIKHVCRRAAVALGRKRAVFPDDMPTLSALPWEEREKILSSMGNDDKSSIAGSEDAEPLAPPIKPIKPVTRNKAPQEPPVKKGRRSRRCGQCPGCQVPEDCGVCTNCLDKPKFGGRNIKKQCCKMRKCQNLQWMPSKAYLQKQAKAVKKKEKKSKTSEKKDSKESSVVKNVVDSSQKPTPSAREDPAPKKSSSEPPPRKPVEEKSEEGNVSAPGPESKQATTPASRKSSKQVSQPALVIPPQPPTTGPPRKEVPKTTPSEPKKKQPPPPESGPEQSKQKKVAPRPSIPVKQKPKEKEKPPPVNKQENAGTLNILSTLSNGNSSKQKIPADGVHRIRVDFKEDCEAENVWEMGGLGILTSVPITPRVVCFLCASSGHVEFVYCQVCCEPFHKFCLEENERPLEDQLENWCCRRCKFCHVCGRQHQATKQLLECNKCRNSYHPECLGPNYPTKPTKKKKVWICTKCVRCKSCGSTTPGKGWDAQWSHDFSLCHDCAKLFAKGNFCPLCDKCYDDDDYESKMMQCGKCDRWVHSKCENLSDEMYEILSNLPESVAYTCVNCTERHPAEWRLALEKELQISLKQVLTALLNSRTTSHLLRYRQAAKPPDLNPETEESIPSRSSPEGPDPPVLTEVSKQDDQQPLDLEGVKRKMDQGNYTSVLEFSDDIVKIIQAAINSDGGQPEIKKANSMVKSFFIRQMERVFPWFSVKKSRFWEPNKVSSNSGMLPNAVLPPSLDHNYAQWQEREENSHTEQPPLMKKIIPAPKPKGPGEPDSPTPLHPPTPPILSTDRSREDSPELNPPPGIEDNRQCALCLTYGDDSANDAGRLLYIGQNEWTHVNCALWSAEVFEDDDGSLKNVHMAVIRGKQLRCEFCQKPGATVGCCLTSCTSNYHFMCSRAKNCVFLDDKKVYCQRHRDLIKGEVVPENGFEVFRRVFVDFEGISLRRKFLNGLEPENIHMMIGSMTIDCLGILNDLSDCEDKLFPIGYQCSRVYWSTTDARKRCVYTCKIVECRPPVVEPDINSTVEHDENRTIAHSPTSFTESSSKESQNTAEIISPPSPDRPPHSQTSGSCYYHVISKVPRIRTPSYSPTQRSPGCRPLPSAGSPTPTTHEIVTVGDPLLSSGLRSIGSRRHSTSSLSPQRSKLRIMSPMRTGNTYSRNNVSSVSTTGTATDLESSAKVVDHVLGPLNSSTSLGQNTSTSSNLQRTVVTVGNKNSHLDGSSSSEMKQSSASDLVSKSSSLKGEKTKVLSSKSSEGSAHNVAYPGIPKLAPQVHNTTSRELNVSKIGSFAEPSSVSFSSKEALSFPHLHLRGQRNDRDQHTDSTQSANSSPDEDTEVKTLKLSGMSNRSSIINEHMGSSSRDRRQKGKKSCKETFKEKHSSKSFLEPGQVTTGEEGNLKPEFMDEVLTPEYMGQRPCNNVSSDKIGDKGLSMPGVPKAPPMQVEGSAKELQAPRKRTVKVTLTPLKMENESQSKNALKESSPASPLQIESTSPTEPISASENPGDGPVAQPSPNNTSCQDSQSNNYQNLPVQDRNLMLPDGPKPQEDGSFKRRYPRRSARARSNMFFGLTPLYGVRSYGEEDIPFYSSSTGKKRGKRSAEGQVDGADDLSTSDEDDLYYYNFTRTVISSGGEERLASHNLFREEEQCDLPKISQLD
Sequence of Histone-lysine N-methyltransferase 2A (Homo sapiens) (Q03164 2719-3969 limits assumed): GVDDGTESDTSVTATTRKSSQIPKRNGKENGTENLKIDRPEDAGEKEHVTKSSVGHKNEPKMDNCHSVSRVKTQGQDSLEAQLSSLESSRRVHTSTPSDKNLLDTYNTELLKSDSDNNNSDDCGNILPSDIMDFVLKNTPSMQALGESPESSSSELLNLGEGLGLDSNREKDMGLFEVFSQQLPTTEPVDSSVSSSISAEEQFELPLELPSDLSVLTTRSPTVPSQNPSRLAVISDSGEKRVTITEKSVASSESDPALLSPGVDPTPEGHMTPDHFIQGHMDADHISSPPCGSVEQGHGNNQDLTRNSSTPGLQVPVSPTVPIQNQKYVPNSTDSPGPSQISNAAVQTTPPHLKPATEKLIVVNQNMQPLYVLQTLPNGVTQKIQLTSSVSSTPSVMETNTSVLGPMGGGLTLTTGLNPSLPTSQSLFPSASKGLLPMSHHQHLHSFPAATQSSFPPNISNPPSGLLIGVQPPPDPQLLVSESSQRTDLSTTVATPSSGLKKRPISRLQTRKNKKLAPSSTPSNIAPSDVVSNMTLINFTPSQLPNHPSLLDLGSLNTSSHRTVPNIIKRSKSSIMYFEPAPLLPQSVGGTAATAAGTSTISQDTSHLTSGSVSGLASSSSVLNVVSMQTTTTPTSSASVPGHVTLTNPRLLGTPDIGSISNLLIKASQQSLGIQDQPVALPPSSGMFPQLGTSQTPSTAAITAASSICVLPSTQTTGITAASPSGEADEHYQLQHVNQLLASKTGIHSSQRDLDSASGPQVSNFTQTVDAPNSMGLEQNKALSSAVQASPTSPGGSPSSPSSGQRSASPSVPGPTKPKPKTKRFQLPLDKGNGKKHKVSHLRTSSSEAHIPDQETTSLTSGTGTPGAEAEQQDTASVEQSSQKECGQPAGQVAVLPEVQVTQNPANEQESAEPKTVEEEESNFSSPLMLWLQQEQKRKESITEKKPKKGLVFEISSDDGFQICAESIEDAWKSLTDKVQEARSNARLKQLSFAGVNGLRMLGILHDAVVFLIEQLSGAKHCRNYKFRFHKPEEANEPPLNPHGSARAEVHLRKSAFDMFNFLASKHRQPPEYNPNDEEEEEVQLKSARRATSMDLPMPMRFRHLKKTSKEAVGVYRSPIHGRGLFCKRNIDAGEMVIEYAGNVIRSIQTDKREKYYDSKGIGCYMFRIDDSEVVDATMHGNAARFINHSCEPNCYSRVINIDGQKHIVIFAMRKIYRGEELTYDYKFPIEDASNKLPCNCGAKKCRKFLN
Sequence of Small conductance calcium-activated potassium channel protein 1 (Homo sapiens) (Q92952 whole entry): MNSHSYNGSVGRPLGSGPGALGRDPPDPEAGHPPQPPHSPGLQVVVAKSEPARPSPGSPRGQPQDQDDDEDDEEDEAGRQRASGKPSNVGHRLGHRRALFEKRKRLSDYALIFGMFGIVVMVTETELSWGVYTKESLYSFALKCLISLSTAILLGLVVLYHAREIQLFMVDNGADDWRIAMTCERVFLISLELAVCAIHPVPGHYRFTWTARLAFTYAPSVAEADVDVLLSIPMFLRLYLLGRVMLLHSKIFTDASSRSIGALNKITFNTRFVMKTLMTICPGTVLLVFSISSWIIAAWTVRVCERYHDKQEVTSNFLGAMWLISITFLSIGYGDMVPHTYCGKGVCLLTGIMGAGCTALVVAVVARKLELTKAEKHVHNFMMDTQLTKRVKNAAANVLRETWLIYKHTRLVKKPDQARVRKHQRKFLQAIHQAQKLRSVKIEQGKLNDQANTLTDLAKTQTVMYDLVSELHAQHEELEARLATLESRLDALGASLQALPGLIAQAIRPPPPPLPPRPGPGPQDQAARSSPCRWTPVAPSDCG

Work on CCN(CC)CCCCNc1ncc2cc(-c3cc(OC)cc(OC)c3)c(NC(=O)NC(C)(C)C)nc2n1 yielded a % of control [1] of 100% and a % of control [2] of 100%.

COCCN1CCC(c2cc(CN(C)C(=O)c3cccc(Oc4ccccc4)c3)ccn2)CC1 gave a % activity ([3]; at 1 µM) of over 95%, a % activity ([3]; at 10 µM) of over 90% and a % activity ([4]; at 1 µM) of over 95%. The % activity ([4]; at 10 µM) was 83%.

Work on CCC(=O)N1CCN(c2ccc(-n3c(=O)ccc4cnc5ccc(-c6cnc7ccccc7c6)cc5c43)cc2C(F)(F)F)CC1 yielded a % of control [5] of 46%.

CN(C)CCOc1ccc(-c2nc(-c3ccncc3)c(-c3ccc4c(c3)CC/C4=N\O)[nH]2)cc1 was tested, and the % of control [6] was 84%.

Nc1cnc(N2CCc3cc(S(=O)(=O)Nc4c(F)cc(Cl)cc4F)cc(N4CCCC4=O)c32)nc1 [TP-020n] gave a % of control [7] of 100%.

In the case of O=C(NOC[C@H](O)CO)c1ccc(F)c(F)c1Nc1ccc(I)cc1F, the % of control [8] is reported as 100%.

Cc1cc([C@@H](C)Nc2ccccc2C(=O)O)c2nc(N3CCOCC3)cc(=O)n2c1 [AZD-6482] gave a % of control (Ephrin type-A receptor 4) of 93%.

Molecule Cn1cc(-n2cnc3c(NCc4nc5cc(Cl)c(Cl)cc5[nH]4)nc(N4CCOCC4)nc32)cn1 has a % of inhibition [9] of -21.2%.

Work on CC[C@@H]1[C@H](F)C(=O)N[C@@H]1COc1nccc2cc(C(N)=O)c(OC)cc12 [ZIMLOVISERTIB] yielded a % of inhibition [10] of -5.5%, a % of inhibition [11] of -21% and a % of inhibition ([12]; at 0.01 µM) of -6.6%. The % of inhibition ([12]; at 0.04 µM) was 20.3%, the % of inhibition ([12]; at 0.2 µM) was 53% and the % of inhibition ([12]; at 1 µM) was 77.8%. The % of inhibition ([12]; at 5 µM) was 94.8%.

Work on COc1cc(Nc2nc(C)cc(-c3cnn4nc(OC)ccc34)n2)cc(C(F)(F)F)c1 yielded a % of control [13] of 100%.

For CC(=O)c1cc(-c2ccccc2OCC2CC2)c2ncccn12, the % of control [14] was 110%.

With N#Cc1cccc(-c2c[nH]c3ncnc(N4CCOCC4)c23)c1 the % of control [15] was 96%.
